Assay results taken from ChEMBL document CHEMBL1148448, “Fluorinated phenylcyclopropylamines. 1. Synthesis and effect of fluorine substitution at the cyclopropane ring on inhibition of microbial tyramine oxidase” (J Med Chem, 2004).

Tested on: tyramine oxidase (microbial, copper amine oxidase); call rule not given here
Test: Compound was evaluated for inhibition of Microbial tyramine oxidase; ni denotes no inhibition detected at millimolar concentrations

IC50	SMILES
Not Active	Cl.NCC[C@@H]1C[C@]1(F)c1ccccc1 (relative stereo)
Not Active	NC(=O)C1CC1(F)c1ccccc1 (trans isomer)
Not Active	Cl.NC[C@@H]1C[C@]1(F)c1ccccc1 (relative stereo)

SMILES	IC50
Cl.NC1(c2ccccc2)CC1F (centres undefined)	Not Active
